Where “and” joins values, the source holds several entries; their conditions need not be identical. Identical values can stand only once.
Species on record: Rattus norvegicus
Assay: DrugMatrix - Regimen: Daily Repeat
Type: toxicity, organism-based, Sprague-Dawley
Design: regimen Daily Repeat, gender Male, age 6-8 weeks
Conditions: in vivo, ip, route intraperitoneal, vehicle 100 % SALINE; for ABSOLUTE BASOPHIL / ABSOLUTE EOSINOPHIL / ABSOLUTE LYMPHOCYTE / ABSOLUTE MONOCYTE / ABSOLUTE SEGMENTED NEUTROPHIL / BASOPHIL / EOSINOPHIL / ERYTHROCYTE COUNT / HEMATOCRIT / HEMOGLOBIN / LEUKOCYTE COUNT / LYMPHOCYTE / MEAN CORPUSCULAR HEMOGLOBIN / MEAN CORPUSCULAR HEMOGLOBIN CONCENTRATION / MEAN CORPUSCULAR VOLUME / MONOCYTE / NEUTROPHIL / PLATELET COUNT: tissue Blood; for ALANINE AMINOTRANSFERASE / ALBUMIN / ALKALINE PHOSPHATASE / ASPARTATE AMINOTRANSFERASE / BLOOD UREA NITROGEN / CARBON DIOXIDE / CHLORIDE / CHOLESTEROL / CREATINE PHOSPHOKINASE / CREATININE / GLUCOSE / LACTATE DEHYDROGENASE / LIPASE / PHOSPHORUS / POTASSIUM / SODIUM / TOTAL BILIRUBIN / TOTAL PROTEIN / URIC ACID: tissue Plasma
[1] = 0 mg/kg, 120 h, dose level Control, time 5 day
[2] = 0 mg/kg, […], dose level Control, time 14 day
[3] = 0 mg/kg, […], dose level Control, time 28 day
[4] = 40 mg/kg, 120 h, dose level High, time 5 day
[5] = 40 mg/kg, […], dose level High, time 14 day
[6] = 40 mg/kg, […], dose level High, time 28 day

NC[C@H]1O[C@H](O[C@H]2[C@H](O)[C@@H](O[C@H]3O[C@H](CO)[C@@H](O)[C@H](N)[C@H]3O)[C@H](N)C[C@@H]2N)[C@H](N)C[C@@H]1O [TOBRAMYCIN]
ABSOLUTE BASOPHIL [1]: 32 cells/µL | ABSOLUTE EOSINOPHIL [1]: 110 cells/µL | ABSOLUTE LYMPHOCYTE [1]: 6630 cells/µL | ABSOLUTE MONOCYTE [1]: 140 cells/µL | ABSOLUTE SEGMENTED NEUTROPHIL [1]: 1170 cells/µL | BASOPHIL [1]: 0.38% and 0.35% | EOSINOPHIL [1]: 1.28% and 0.62% | ERYTHROCYTE COUNT [1]: 7.45 x10E6/uL and 7.26 x10E6/uL | HEMATOCRIT [1]: 45.74% and 47.97% | HEMOGLOBIN [1]: 14.72 G/DL and 15.38 G/DL | LEUKOCYTE COUNT [1]: 8.11 x10E3/uL and 8.68 x10E3/uL | LYMPHOCYTE [1]: 81.3% and 86.77% | MEAN CORPUSCULAR HEMOGLOBIN [1]: 19.76 pg and 21.18 pg | MEAN CORPUSCULAR HEMOGLOBIN CONCENTRATION [1]: 32.16 G/DL and 32.05 G/DL | MEAN CORPUSCULAR VOLUME [1]: 61.38 fL and 66.15 fL | MONOCYTE [1]: 1.76% and 1.57% | NEUTROPHIL [1]: 14.9% and 9.53% | PLATELET COUNT [1]: 1322.4 x10E3/uL and 1786 x10E3/uL | ALANINE AMINOTRANSFERASE [1]: 25.8 u/L and 20.5 u/L | ALBUMIN [1]: 3.64 G/DL and 4.35 G/DL | ALKALINE PHOSPHATASE [1]: 233.6 u/L and 300 u/L | ASPARTATE AMINOTRANSFERASE [1]: 81.4 u/L and 86.75 u/L | BLOOD UREA NITROGEN [1]: 14.4 mg/dL and 17 mg/dL | CARBON DIOXIDE [1]: 29 mmol/L | CHLORIDE [1]: 105.6 MEQ/L and 106.25 MEQ/L | CHOLESTEROL [1]: 69.2 mg/dL and 51.25 mg/dL | CREATINE PHOSPHOKINASE [1]: 384.75 u/L | CREATININE [1]: 0.56 mg/dL and 0.47 mg/dL | GLUCOSE [1]: 125.4 mg/dL and 128.75 mg/dL | LACTATE DEHYDROGENASE [1]: 105.4 u/L and 145 u/L | LIPASE [1]: 22.4 u/L and 13.25 u/L | PHOSPHORUS [1]: 11.48 mg/dL and 11.8 mg/dL | POTASSIUM [1]: 5.52 MEQ/L and 6.58 MEQ/L | SODIUM [1]: 147 MEQ/L and 151 MEQ/L | TOTAL BILIRUBIN [1]: 0.2 mg/dL and 0.33 mg/dL | TOTAL PROTEIN [1]: 6.1 G/DL and 6.53 G/DL | URIC ACID [1]: 1.06 mg/dL and 1.95 mg/dL | ABSOLUTE BASOPHIL [2]: 130 cells/µL | ABSOLUTE EOSINOPHIL [2]: 140 cells/µL | ABSOLUTE LYMPHOCYTE [2]: 13500 cells/µL | ABSOLUTE MONOCYTE [2]: 400 cells/µL | ABSOLUTE SEGMENTED NEUTROPHIL [2]: 2330 cells/µL | HEMATOCRIT [2]: 45.98% | ABSOLUTE BASOPHIL [3]: 91 cells/µL | ABSOLUTE EOSINOPHIL [3]: 110 cells/µL | ABSOLUTE LYMPHOCYTE [3]: 9910 cells/µL | ABSOLUTE MONOCYTE [3]: 210 cells/µL | ABSOLUTE SEGMENTED NEUTROPHIL [3]: 1560 cells/µL | BASOPHIL [3]: 0.77% | EOSINOPHIL [3]: 0.92% | ERYTHROCYTE COUNT [3]: 8.21 x10E6/uL | HEMATOCRIT [3]: 47.53% | HEMOGLOBIN [3]: 15.65 G/DL | LEUKOCYTE COUNT [3]: 11.91 x10E3/uL | LYMPHOCYTE [3]: 83.34% | MEAN CORPUSCULAR HEMOGLOBIN [3]: 19.07 pg | MEAN CORPUSCULAR HEMOGLOBIN CONCENTRATION [3]: 32.93 G/DL | MEAN CORPUSCULAR VOLUME [3]: 57.9 fL | MONOCYTE [3]: 1.68% | NEUTROPHIL [3]: 12.97% | PLATELET COUNT [3]: 1323.8 x10E3/uL | CARBON DIOXIDE [2]: 25 mmol/L | ALANINE AMINOTRANSFERASE [3]: 30 u/L | ALBUMIN [3]: 3.71 G/DL | ALKALINE PHOSPHATASE [3]: 186.8 u/L | ASPARTATE AMINOTRANSFERASE [3]: 78.2 u/L | BLOOD UREA NITROGEN [3]: 14.2 mg/dL | CHLORIDE [3]: 105.4 MEQ/L | CHOLESTEROL [3]: 44.9 mg/dL | CREATINE PHOSPHOKINASE [3]: 334.3 u/L | CREATININE [3]: 0.6 mg/dL | GLUCOSE [3]: 147.2 mg/dL | LACTATE DEHYDROGENASE [3]: 123.1 u/L | LIPASE [3]: 9.6 u/L | PHOSPHORUS [3]: 10.01 mg/dL | POTASSIUM [3]: 6.57 MEQ/L | SODIUM [3]: 149.5 MEQ/L | TOTAL BILIRUBIN [3]: 0.21 mg/dL | TOTAL PROTEIN [3]: 6.66 G/DL | URIC ACID [3]: 1.26 mg/dL | ABSOLUTE BASOPHIL [4]: 78 cells/µL | ABSOLUTE EOSINOPHIL [4]: 120 cells/µL | ABSOLUTE LYMPHOCYTE [4]: 8040 cells/µL | ABSOLUTE MONOCYTE [4]: 210 cells/µL | ABSOLUTE SEGMENTED NEUTROPHIL [4]: 920 cells/µL | BASOPHIL [4]: 0.78% and 0.42% | EOSINOPHIL [4]: 1.32% and 0.7% | ERYTHROCYTE COUNT [4]: 7.61 x10E6/uL and 7.29 x10E6/uL | HEMATOCRIT [4]: 45.66% and 46.27% | HEMOGLOBIN [4]: 15.22 G/DL and 14.92 G/DL | LEUKOCYTE COUNT [4]: 9.41 x10E3/uL and 6.74 x10E3/uL | LYMPHOCYTE [4]: 84.78% and 87.65% | MEAN CORPUSCULAR HEMOGLOBIN [4]: 20.04 pg and 20.48 pg | MEAN CORPUSCULAR HEMOGLOBIN CONCENTRATION [4]: 33.38 G/DL and 32.25 G/DL | MEAN CORPUSCULAR VOLUME [4]: 60.02 fL and 63.45 fL | MONOCYTE [4]: 2.34% and 1.52% | NEUTROPHIL [4]: 10.36% and 8.62% | PLATELET COUNT [4]: 1436.6 x10E3/uL and 1523 x10E3/uL | ALANINE AMINOTRANSFERASE [4]: 32.4 u/L and 20.5 u/L | ALBUMIN [4]: 3.42 G/DL and 4.17 G/DL | ALKALINE PHOSPHATASE [4]: 217.6 u/L and 314.25 u/L | ASPARTATE AMINOTRANSFERASE [4]: 80.2 u/L and 91.75 u/L | BLOOD UREA NITROGEN [4]: 14.8 mg/dL and 15.25 mg/dL | CARBON DIOXIDE [4]: 25.75 mmol/L | CHLORIDE [4]: 109.8 MEQ/L and 108.25 MEQ/L | CHOLESTEROL [4]: 58.4 mg/dL and 56 mg/dL | CREATINE PHOSPHOKINASE [4]: 257.6 u/L and 601.5 u/L | CREATININE [4]: 0.52 mg/dL and 0.5 mg/dL | GLUCOSE [4]: 127.2 mg/dL and 121.75 mg/dL | LACTATE DEHYDROGENASE [4]: 84.6 u/L and 185.75 u/L | LIPASE [4]: 17 u/L and 8.25 u/L | PHOSPHORUS [4]: 10.22 mg/dL and 12.03 mg/dL | POTASSIUM [4]: 6.26 MEQ/L and 5.68 MEQ/L | SODIUM [4]: 151.2 MEQ/L and 152 MEQ/L | TOTAL BILIRUBIN [4]: 0.14 mg/dL and 0.3 mg/dL | TOTAL PROTEIN [4]: 5.84 G/DL and 6.38 G/DL | URIC ACID [4]: 0.98 mg/dL and 1.82 mg/dL | ABSOLUTE BASOPHIL [5]: 120 cells/µL | ABSOLUTE EOSINOPHIL [5]: 60 cells/µL | ABSOLUTE LYMPHOCYTE [5]: 7970 cells/µL | ABSOLUTE MONOCYTE [5]: 180 cells/µL | ABSOLUTE SEGMENTED NEUTROPHIL [5]: 970 cells/µL | ABSOLUTE BASOPHIL [6]: 110 cells/µL | ABSOLUTE EOSINOPHIL [6]: 140 cells/µL | ABSOLUTE LYMPHOCYTE [6]: 11000 cells/µL | ABSOLUTE MONOCYTE [6]: 270 cells/µL | ABSOLUTE SEGMENTED NEUTROPHIL [6]: 2010 cells/µL | BASOPHIL [6]: 0.75% | EOSINOPHIL [6]: 1.01% | ERYTHROCYTE COUNT [6]: 8.16 x10E6/uL | HEMATOCRIT [6]: 47.35% | HEMOGLOBIN [6]: 15.56 G/DL | LEUKOCYTE COUNT [6]: 13.61 x10E3/uL | LYMPHOCYTE [6]: 82.08% | MEAN CORPUSCULAR HEMOGLOBIN [6]: 19.08 pg | MEAN CORPUSCULAR HEMOGLOBIN CONCENTRATION [6]: 32.87 G/DL | MEAN CORPUSCULAR VOLUME [6]: 58.02 fL | MONOCYTE [6]: 1.93% | NEUTROPHIL [6]: 13.77% | PLATELET COUNT [6]: 1300.9 x10E3/uL | CARBON DIOXIDE [5]: 24 mmol/L | ALANINE AMINOTRANSFERASE [6]: 28.5 u/L | ALBUMIN [6]: 3.56 G/DL | ALKALINE PHOSPHATASE [6]: 137.2 u/L | ASPARTATE AMINOTRANSFERASE [6]: 79.3 u/L | BLOOD UREA NITROGEN [6]: 16.3 mg/dL | CHLORIDE [6]: 108.2 MEQ/L | CHOLESTEROL [6]: 59.4 mg/dL | CREATINE PHOSPHOKINASE [6]: 132.4 u/L | CREATININE [6]: 0.68 mg/dL | GLUCOSE [6]: 127.2 mg/dL | LACTATE DEHYDROGENASE [6]: 83.6 u/L | LIPASE [6]: 12.4 u/L | PHOSPHORUS [6]: 8.3 mg/dL | POTASSIUM [6]: 5.48 MEQ/L | SODIUM [6]: 152.3 MEQ/L | TOTAL BILIRUBIN [6]: 0.18 mg/dL | TOTAL PROTEIN [6]: 6.53 G/DL | URIC ACID [6]: 0.96 mg/dL

— ChEMBL document CHEMBL3885881, “DrugMatrix”
